Activity calls are given as the source filed them. The calls are words filed in the database; no cut-off is given here.
Tests used:
[1] = system: Mythimna separata; assay: Insecticidal activity against Mythimna separata (Oriental armyworm) pre-third-instar larvae fed on 1 mg/ml compound pre-treated wheat leaves assessed as induction of malformation of pupae with imperfect wings measured during emergence period by leaf-dipping method; type: functional, organism-based
[2] = system: Mythimna separata; assay: Insecticidal activity against Mythimna separata (Oriental armyworm) pre-third-instar larvae fed on 1 mg/ml compound pre-treated wheat leaves assessed as insect mortality by leaf-dipping method; type: functional, organism-based; settings: TDE = time-dependent effect
[3] = system: Mythimna separata; assay: Insecticidal activity against Mythimna separata (Oriental armyworm) pre-third-instar larvae fed on 1 mg/ml compound pre-treated wheat leaves assessed as insect mortality measured after 34 days by leaf-dipping method; type: functional
[4] = system: Mythimna separata; assay: Insecticidal activity against Mythimna separata (Oriental armyworm) pre-third-instar larvae fed on 1 mg/ml compound pre-treated wheat leaves assessed as insect mortality measured after 20 days by leaf-dipping method; type: functional
[5] = system: Mythimna separata; assay: Insecticidal activity against Mythimna separata (Oriental armyworm) pre-third-instar larvae fed on 1 mg/ml compound pre-treated wheat leaves assessed as insect mortality measured after 10 days by leaf-dipping method; type: functional
[6] = system: Mythimna separata; assay: Insecticidal activity against Mythimna separata (Oriental armyworm) pre-third-instar larvae fed on 1 mg/ml compound pre-treated wheat leaves assessed as induction of malformation of pupae measured during pupation period by leaf-dipping method; type: functional, organism-based

| Structure (SMILES) | Activity [1] | Activity [2] | mortality [3] [%] | mortality [4] [%] | mortality [5] [%] | Activity [6] |
| --- | --- | --- | --- | --- | --- | --- |
| CCCC(=O)O[C@@H]1c2cc3c(cc2[C@@H](c2cc(OC)c4nc5ccccc5nc4c2)[C@H]2C(=O)OC[C@@H]21)OCO3 | Active | tde | 37.9 | 10.3 | 3.3 |  |
| CC(=O)O[C@@H]1C[C@H](O)[C@@]23CO[C@@H](O)[C@]1(C)[C@@H]2C[C@@H](O)[C@]1(C)[C@@H]3C(=O)[C@H](OC(C)=O)[C@@]2(C)[C@H](c3ccoc3)C[C@H]3O[C@]321 [TOOSENDANIN] |  | tde | 51.7 | 27.6 | 10 |  |
| COc1cc([C@@H]2c3cc4c(cc3[C@@H](OC(C)=O)[C@H]3COC(=O)[C@H]23)OCO4)cc2nc3ccccc3nc12 |  | tde | 41.4 | 20.7 | 6.7 |  |
| COc1cc([C@@H]2c3cc4c(cc3[C@@H](OC(=O)c3ccccc3Cl)[C@H]3COC(=O)[C@H]23)OCO4)cc2nc3ccccc3nc12 |  | tde | 51.7 | 20.7 | 10 | Active |
| CCC(=O)O[C@@H]1c2cc3c(cc2[C@@H](c2cc(OC)c4nc5ccccc5nc4c2)[C@H]2C(=O)OC[C@@H]21)OCO3 | Active | tde | 55.2 | 27.6 | 20 |  |
| CCCCCCCCCCC(=O)O[C@@H]1c2cc3c(cc2[C@@H](c2cc(OC)c4nc5ccccc5nc4c2)[C@H]2C(=O)OC[C@@H]21)OCO3 | Active | tde | 37.9 | 10.3 | 0 | Active |
| COc1cc([C@@H]2c3cc4c(cc3[C@@H](OC(=O)Cc3ccc5ccccc5c3)[C@H]3COC(=O)[C@H]23)OCO4)cc2nc3ccccc3nc12 | Active | tde | 51.7 | 6.9 | 3.3 |  |
| COc1cc([C@@H]2c3cc4c(cc3[C@H](O)[C@H]3COC(=O)[C@H]23)OCO4)cc(OC)c1OC [PODOFILOX] |  | tde | 34.5 | 17.2 | 6.7 |  |
| COc1cc([C@@H]2c3cc4c(cc3[C@@H](O)[C@H]3COC(=O)[C@H]23)OCO4)cc2nc3ccccc3nc12 |  | tde | 31 | 13.8 | 3.3 | Active |
| COc1cc([C@@H]2c3cc4c(cc3[C@@H](O)[C@H]3COC(=O)[C@H]23)OCO4)cc(OC)c1O [4'-DEMETHYLEPIPODOPHYLLOTOXIN] |  | tde | 37.9 | 13.8 | 6.7 |  |
| COc1cc([C@@H]2c3cc4c(cc3[C@@H](OC(=O)c3cccc(Cl)c3)[C@H]3COC(=O)[C@H]23)OCO4)cc2nc3ccccc3nc12 |  | tde | 41.4 | 17.2 | 6.7 | Active |
| COc1cc([C@@H]2c3cc4c(cc3[C@@H](OC(=O)c3ccc(Cl)cc3)[C@H]3COC(=O)[C@H]23)OCO4)cc2nc3ccccc3nc12 |  | tde | 48.3 | 17.2 | 0 |  |
| COc1cc([C@@H]2c3cc4c(cc3[C@@H](OC(=O)c3ccc([N+](=O)[O-])cc3)[C@H]3COC(=O)[C@H]23)OCO4)cc2nc3ccccc3nc12 |  | tde | 37.9 | 13.8 | 3.3 |  |
| CCCCCCCCCCCC(=O)O[C@@H]1c2cc3c(cc2[C@@H](c2cc(OC)c4nc5ccccc5nc4c2)[C@H]2C(=O)OC[C@@H]21)OCO3 |  | tde | 34.5 | 6.9 | 0 | Active |
| COc1cc([C@@H]2c3cc4c(cc3[C@@H](OC(=O)c3cccc(C)c3)[C@H]3COC(=O)[C@H]23)OCO4)cc2nc3ccccc3nc12 | Active | tde | 41.4 | 13.8 | 6.7 |  |
| COc1cc([C@@H]2c3cc4c(cc3[C@@H](OC(=O)c3ccc(Cl)c([N+](=O)[O-])c3)[C@H]3COC(=O)[C@H]23)OCO4)cc2nc3ccccc3nc12 | Active | tde | 55.2 | 27.6 | 10 |  |
| CCCCCCCCCCCCCCCC(=O)O[C@@H]1c2cc3c(cc2[C@@H](c2cc(OC)c4nc5ccccc5nc4c2)[C@H]2C(=O)OC[C@@H]21)OCO3 |  | tde | 27.6 | 6.9 | 0 |  |
| COc1cc([C@@H]2c3cc4c(cc3[C@@H](OC(=O)c3ccccc3)[C@H]3COC(=O)[C@H]23)OCO4)cc2nc3ccccc3nc12 |  | tde | 24.1 | 17.2 | 3.3 |  |

— ChEMBL document CHEMBL3044697, “Natural products-based insecticidal agents 13. Semisynthesis and insecticidal activity of novel phenazine derivatives of 4β-acyloxypodophyllotoxin modified in the E-ring against Mythimna separata Walker in vivo” (2013)
